Structures can show the parent of a compound that is named as a salt.
Key:
Settings in all cases: exposure time: 72 h
E31 [1] = patient-derived glioblastoma stem cells of proneural subtype; test: phenotypic distance (Euclidean, principal components) from DMSO controls (arbitrary units); higher = stronger morphological change
FT3469 [2] = normal neural stem cell line; test: as above
E28 [3] = patient-derived glioblastoma stem cells of classical subtype; test: as above
E34 [4] = patient-derived glioblastoma stem cells of proneural subtype; test: as above
E57 [5] = patient-derived glioblastoma stem cells of mesenchymal subtype; test: as above
E13 [6] = patient-derived glioblastoma stem cells of classical subtype; test: as above
E21 [7] = patient-derived glioblastoma stem cells of mesenchymal subtype; test: as above
E31 [8] = test: surviving fraction (nuclei count normalised to DMSO); higher = more cells surviving (less toxic)
FT3469 [9] = test: as above
E28 [10] = test: as above
E34 [11] = test: as above
E57 [12] = test: as above
E13 [13] = test: as above
E21 [14] = test: as above
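Throughout, for phenotypic distance (Euclidean, principal components) from DMSO controls: cell Painting imaging in 384-well plates, CellProfiler features reduced to at least 20 principal components, Euclidean distance versus same-plate DMSO vehicle wells (0.1% v/v), median over six images per well.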
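Throughout, for surviving fraction (nuclei count normalised to DMSO): nuclei counted by high-content imaging of Hoechst-stained cells in laminin-coated 384-well plates, relative to 0.1% DMSO vehicle wells, with staurosporine as cell-death control.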

NC1CCN(c2nc3c(cc2F)c(=O)c(C(=O)O)cn3-c2ccc(F)cc2F)C1 (stereo not drawn) [Tosufloxacin hydrochloride]
Settings	phenotypic distance	surviving fraction
E13 [6], 4.1 nM	0.747	–
E13 [6], 12.3 nM	0.689	–
E13 [6], 37 nM	0.471	–
E13 [6], 111.1 nM	0.593	–
E13 [6], 333.3 nM	0.883	–
E13 [6], 1000 nM	0.502	–
E13 [6], 3000 nM	0.704	–
E13 [13], 4.1 nM	–	0.947
E13 [13], 12.3 nM	–	1.13
E13 [13], 37 nM	–	0.977
E13 [13], 111.1 nM	–	1.05
E13 [13], 333.3 nM	–	1.01
E13 [13], 1000 nM	–	1
E13 [13], 3000 nM	–	1.04
E21 [7], 4.1 nM	0.748	–
E21 [7], 12.3 nM	0.836	–
E21 [7], 37 nM	0.56	–
E21 [7], 111.1 nM	0.309	–
E21 [7], 333.3 nM	0.495	–
E21 [7], 1000 nM	0.751	–
E21 [7], 3000 nM	0.725	–
E21 [14], 4.1 nM	–	0.969
E21 [14], 12.3 nM	–	1.06
E21 [14], 37 nM	–	1.02
E21 [14], 111.1 nM	–	0.964
E21 [14], 333.3 nM	–	0.988
E21 [14], 1000 nM	–	0.989
E21 [14], 3000 nM	–	0.906
E28 [3], 4.1 nM	3.44	–
E28 [3], 12.3 nM	0.615	–
E28 [3], 37 nM	0.624	–
E28 [3], 111.1 nM	0.684	–
E28 [3], 333.3 nM	0.493	–
E28 [3], 1000 nM	0.455	–
E28 [3], 3000 nM	0.886	–
E28 [10], 4.1 nM	–	0.969
E28 [10], 12.3 nM	–	1.18
E28 [10], 37 nM	–	0.9
E28 [10], 111.1 nM	–	1.12
E28 [10], 333.3 nM	–	0.975
E28 [10], 1000 nM	–	1.01
E28 [10], 3000 nM	–	0.898
E31 [1], 4.1 nM	0.809	–
E31 [1], 12.3 nM	0.633	–
E31 [1], 37 nM	0.706	–
E31 [1], 111.1 nM	0.608	–
E31 [1], 333.3 nM	0.538	–
E31 [1], 1000 nM	0.815	–
E31 [1], 3000 nM	0.521	–
E31 [8], 4.1 nM	–	0.78
E31 [8], 12.3 nM	–	0.861
E31 [8], 37 nM	–	0.987
E31 [8], 111.1 nM	–	0.892
E31 [8], 333.3 nM	–	1.06
E31 [8], 1000 nM	–	0.836
E31 [8], 3000 nM	–	0.849
E34 [4], 4.1 nM	0.608	–
E34 [4], 12.3 nM	0.861	–
E34 [4], 37 nM	0.802	–
E34 [4], 111.1 nM	0.784	–
E34 [4], 333.3 nM	0.625	–
E34 [4], 1000 nM	0.557	–
E34 [4], 3000 nM	0.971	–
E34 [11], 4.1 nM	–	0.948
E34 [11], 12.3 nM	–	0.869
E34 [11], 37 nM	–	0.977
E34 [11], 111.1 nM	–	0.985
E34 [11], 333.3 nM	–	0.916
E34 [11], 1000 nM	–	1.03
E34 [11], 3000 nM	–	0.856
E57 [5], 4.1 nM	0.751	–
E57 [5], 12.3 nM	0.527	–
E57 [5], 37 nM	0.691	–
E57 [5], 111.1 nM	0.438	–
E57 [5], 333.3 nM	0.382	–
E57 [5], 1000 nM	0.743	–
E57 [5], 3000 nM	0.801	–
E57 [12], 4.1 nM	–	1.03
E57 [12], 12.3 nM	–	1.03
E57 [12], 37 nM	–	1
E57 [12], 111.1 nM	–	1.06
E57 [12], 333.3 nM	–	0.946
E57 [12], 1000 nM	–	1.09
E57 [12], 3000 nM	–	0.903
FT3469 [2], 4.1 nM	0.676	–
FT3469 [2], 12.3 nM	0.401	–
FT3469 [2], 37 nM	0.584	–
FT3469 [2], 111.1 nM	0.591	–
FT3469 [2], 333.3 nM	3.26	–
FT3469 [2], 1000 nM	0.468	–
FT3469 [2], 3000 nM	0.933	–
FT3469 [9], 4.1 nM	–	0.927
FT3469 [9], 12.3 nM	–	0.952
FT3469 [9], 37 nM	–	1.13
FT3469 [9], 111.1 nM	–	0.908
FT3469 [9], 333.3 nM	–	0.964
FT3469 [9], 1000 nM	–	0.96
FT3469 [9], 3000 nM	–	0.913

From the supplement of paper PMC13207355
